In data set [1] the test system is HIF-1α. In words: Western blot of HIF-1α protein in tumor cells. Type of data set: cell-based, human. As to conditions: for HIF-1α protein level: A2058 (also A2056) human melanoma cells, constitutively active c-Src. (Immunoblotting shows a protein as a band on a membrane.)
The test system of data set [2] is VEGF. The experiment in a line: Western blot of VEGF protein in tumor cells. The format is cell-based, human. The source says: […] Fifty […] of nuclear or whole-cell extracts was used for Western blot analysis. HIF-1α rabbit polyclonal antibody (H-206) (1:500 dilution), HIF-1β mouse monoclonal antibody (1:1,500 dilution), AKT1 mouse monoclonal, anti-phospho-AKT rabbit polyclonal, anti-VEGF monoclonal antibody (1:1,000 dilution) were used for the Western blot analyses. Horseradish peroxidase-conjugated sheep anti-mouse and donkey anti-rabbit or anti-goat secondary antibodies were used at 1:2,000 and 1:5,000 dilutions, respectively. The signal was developed with SuperSignal West Pico Chemiluminescent Substrate (PIERCE).

In data set [3] the test system is Stat3. The experiment in a line: EMSA of Stat3 DNA-binding activity in nuclear extracts. The format is cell-based, human. The conditions noted are these: for Stat3 DNA-binding activity: A2058 (also A2056) human melanoma cells. The procedure:
Nuclear extracts (1-8 μg of total protein) were incubated with the ^32P-radiolabled hSEE (high-affinity Sis-Inducible Element) oligonucleotide probe. Protein-DNA complexes were resolved by 5% non-denatured polyacrylamide gel electrophoresis (PAGE) and specific STAT/DNA complexes were detected by autoradiography.
On the technique in general: In EMSA bound probe runs differently from free probe, usually more slowly.

Data set [4] concerns MDA-MB-468 cells. The experiment in a line: Trypan blue dye exclusion assay (cell death). Type of data set: cell-based, human. As to conditions: 48 h. The procedure:
MDA-MB-468 cells were treated with vehicle DMSO (control), 10 or 20 μM LY294002; 0.05 EM JSI-124; 10+0.05 μM LY294002+JSI-124; or 20+0.05 μM LY294002+JSI-124 for 48 h, followed by trypan blue dye exclusion assay. The numbers indicate the percentage of dead cells. Standard deviations are shown with error bars.
The trypan blue dye exclusion assay was performed by mixing 20 μl of cell suspension with 20 μl of 0.4% trypan blue dye before injecting into a hemocytometer and counting. The number of cells that absorbed the dye and those that exclude the dye were counted, from which the percentage of nonviable cell number to total cell number was calculated.
To determine whether the combination treatment is more beneficial than single agent treatment to induce breast cancer cell death, MDA-MB-468 cells were treated with the indicated concentrations of either drug alone or in combinations for 48 h, followed by trypan blue dye incorporation assays.

The subject of data set [5] is MDA-MB-468 cells. In words: TUNEL assay (apoptosis). Type of data set: cell-based, human. As to conditions: single agents: 20 μM LY294002; 0.1 or 0.05 μM JSI-124; 48 h. The procedure:
The assay was performed following manufacturer's instruction using the APO-Direct kit. […] After removing the DNA labeling solution by rinsing cells with Rinsing Buffer, the cells were incubated with the Propidium Iodide/RNase A solution, incubated for 30 min at room temperature in the dark, and then analyzed by flow cytometry within 3 h of staining.

The test system of data set [6] is MDA-MB-468 and MDA-MB453 cells. The experiment in a line: Flow cytometry cell cycle analysis. Type of data set: cell-based, human. The conditions noted are these: 20 μM LY294002, 0.05 μM JSI-124, 48 h. How it is done:
MDA-453 cells were treated with vehicle DMSO (control), 20 μM LY294002; 0.05 μM JSI-124 or 20+0.05 μM LY294002+JSI-124 for 48 h, followed by flow cytometry analysis.
Cell cycle analysis based on DNA content was performed as we described previously. At each time point, cells were harvested, counted, and washed twice with wash buffer (1 mg glucose per ml PBS). Cells (2×10^6) were suspended in 0.5 ml PBS, fixed in 5 ml of 70% ethanol for over night at −20° C., centrifuged, washed once with PBS and resuspended again in 1 ml of propidium iodide staining solution (50 jig propidium iodide, 100 units RNase A and 1 mg glucose per ml PBS), and incubated at room temperature in the dark for 30 min. The cells were then analyzed with FACScan (Becton Dickinson Immunocytometry, Calif.), ModFit LT and WinMDI V.2.8 cell cycle analysis software (Verity Software; Topsham, Me.). The cell cycle distribution is shown as the percentage of cells containing G1, S, G2, and M DNA judged by propidium iodide staining.
To determine the effect of combination treatment on cell cycle changes, MDA-MB-468 and MDA-MB453 cells were treated with the indicated concentrations of LY294002, JSI-124 or their combinations for 48 h, followed by flow cytometry analysis.

Data set [7] concerns the target Stat3 (Homo sapiens, UniProt P40763). As to conditions: cited from earlier work.
Data set [8] deals with Jak2. As to conditions: cited from earlier work.
The test system of data set [9] is PI3k/Akt or Mek/Erk pathways. As to conditions: cited from earlier work.
Data set [10] relates to AKT1 mRNA. In words: Microarray gene expression database, AKT1 mRNA. The conditions noted are these: MDA-MB435 human breast cancer cell line. The format is cell-based.
[11] abbreviates: EGF stimulation, DU145 human prostate cancer cells (data not shown).

The values below come from patent publication US20060030536A1, “Combination therapies for cancer and proliferative angiopathies” (University of South Florida, priority 2004, published 2006).

Stat3 (Homo sapiens, UniProt P40763), sequence (P40763 whole entry): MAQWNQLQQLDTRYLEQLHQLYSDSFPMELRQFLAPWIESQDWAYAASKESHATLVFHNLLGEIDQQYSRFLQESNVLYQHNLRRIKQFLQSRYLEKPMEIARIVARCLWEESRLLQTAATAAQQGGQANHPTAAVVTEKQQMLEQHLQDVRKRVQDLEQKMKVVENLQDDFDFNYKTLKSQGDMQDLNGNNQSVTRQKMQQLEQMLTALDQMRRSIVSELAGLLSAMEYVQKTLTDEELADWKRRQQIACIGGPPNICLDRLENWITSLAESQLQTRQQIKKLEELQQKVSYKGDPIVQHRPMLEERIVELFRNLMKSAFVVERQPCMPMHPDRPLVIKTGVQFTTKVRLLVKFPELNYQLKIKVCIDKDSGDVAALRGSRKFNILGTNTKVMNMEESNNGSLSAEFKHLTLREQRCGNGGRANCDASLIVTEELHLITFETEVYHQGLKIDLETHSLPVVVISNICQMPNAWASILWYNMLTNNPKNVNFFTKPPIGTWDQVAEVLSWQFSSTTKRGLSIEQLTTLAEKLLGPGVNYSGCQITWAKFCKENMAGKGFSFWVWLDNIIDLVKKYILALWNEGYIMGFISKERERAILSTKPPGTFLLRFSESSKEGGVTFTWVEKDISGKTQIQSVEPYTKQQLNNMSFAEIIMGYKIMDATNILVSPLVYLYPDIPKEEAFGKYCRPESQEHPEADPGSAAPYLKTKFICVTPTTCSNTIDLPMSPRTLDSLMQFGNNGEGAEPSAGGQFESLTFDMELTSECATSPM

With heregulin, in [1] (MCF-7 cells, heregulin), the HIF-1α expression entry was “induces HIF-1α expression”. Moreover, the VEGF expression entry in [2] (control MCF-7 cells, heregulin) is on record as “upregulates VEGF expression”. In [3] (MCF-7 cells, heregulin at 100 ng/ml), the “activated Stat3” value is given as “detectable levels of activated Stat3”.

As for `O=c1cc(N2CCOCC2)oc2c(-c3ccccc3)cccc12` [LY294002, 2-(4-morpholinyl)-8-phenyl-4H-1-benzopyran-4-one], the cell death in data set [4] (20 μM LY294002 alone) is given as 14%. For the same molecule, the apoptosis induction result in [5] is recorded as “Little apoptosis induction”. Also, in data set [6], the “accumulation in G0/G1 phase” value is reported as “not either single drug treatment”.

As for `CC(=O)OC(C)(C)/C=C/C(=O)[C@](C)(O)[C@H]1[C@H](O)C[C@@]2(C)[C@@H]3CC=C4[C@H](C[C@H](O)C(=O)C4(C)C)[C@]3(C)C(=O)C[C@]12C` [Cucurbitacin B], the Stat3 activation entry in data set [7] was “suppress both Stat3 and Jak2 activation”. For the same molecule, the Jak2 activation entry in [8] was “suppress both Stat3 and Jak2 activation”.

On to Cucurbitacin Q, for which the Stat3 activation entry in [7] is recorded as “suppress Stat3 activation”. The Jak2 activation entry in data set [8] was “not Jak2 activation”.

Take `CC(C)(O)/C=C/C(=O)[C@](C)(O)C1[C@H](O)C[C@@]2(C)C3CC=C4C(C=C(O)C(=O)C4(C)C)[C@]3(C)C(=O)C[C@]12C` (some centres unmarked) [JSI-124, Cucurbitacin I]: the cell death in data set [4] (0.05 μM JSI-124 alone) was found to be 7%. In [5], the apoptosis induction entry is recorded as “Little apoptosis induction”. Further, the “accumulation in G0/G1 phase” value in data set [6] was “not either single drug treatment”. For the same molecule, the Stat3 activation entry in [7] was “suppress both Stat3 and Jak2 activation”. Further, in data set [8], the Jak2 activation result is “suppress both Stat3 and Jak2 activation”. Further, in data set [9], the “inhibition of PI3k/Akt or Mek/Erk pathways” value is recorded as “does not inhibit the PI3k/Akt or Mek/Erk pathways”.

For `CCN(CC)CCOc1ccc(Nc2ncc3cc(-c4c(Cl)cccc4Cl)c(=O)n(C)c3n2)cc1` [PD166285], the HIF-1α protein level entry in data set [1] is given as “dose-dependent reduction in HIF-1α protein level”. Further, in [3], the “Stat3 DNA-binding activity” value is “parallel reduction in Stat3 DNA-binding activity”.

With “Stat3 antisense oligonucleotide: antisense nucleic acid 5′-AAAAAGTGCCCAGATTGCCC-3′ used to knock down Stat3 expression (listed as DNA, chemistry not given here)”, in data set [1] (setting [11]), the HIF-1α upregulation result is “required for both HIF-1α and VEGF upregulation by EGF stimulation”. Also, the VEGF upregulation result in data set [2] (setting [11]) was “required for both HIF-1α and VEGF upregulation by EGF stimulation”. The “AKT1 mRNA expression” value in data set [10] is recorded as “reduction in AKT1 mRNA expression”.

For the molecule `C[C@@H]1C[C@@H]([C@H](O)CC2CC(=O)NC(=O)C2)C(=O)[C@@H](C)C1` [cycloheximide], in [1] (MCF-7 cells, 20 ng/ml IL-6, protein synthesis blocked), the “IL-6-induced HIF-1α expression” value was “attenuation of HIF-1α expression”.

Consider `CC(=O)OC(C)(C)/C=C/C(=O)[C@](C)(O)[C@H]1[C@H](O)C[C@@]2(C)[C@@H]3CC=C4[C@@H](C=C(O)C(=O)C4(C)C)[C@]3(C)C(=O)C[C@]12C` [Cucurbitacin E], for which the Stat3 activation result in data set [7] was “suppress both Stat3 and Jak2 activation”. The Jak2 activation result in data set [8] was “suppress both Stat3 and Jak2 activation”.

Turning to `CCC(O)[NH+]1CC[NH+](C(O)CC)CC1.[Cl][Pt-2]([Cl])([Cl])([Cl])([Cl])[Cl]` (centres unmarked) [IS3 295], the HIF-1α expression result in [1] (DU145 tumor cells) is “reduction in the expression of both HIF-1α and VEGF”. For the same molecule, the VEGF expression result in data set [2] (DU145 tumor cells) is “reduction in the expression of both HIF-1α and VEGF”. Besides, in data set [3] (DU145 prostate cancer cells), the “Stat3 activity (DNA-binding)” value is on record as “reduction in Stat3 activity in a dose-dependent manner”.

`Cc1cc(Nc2ncc3cc(-c4c(Cl)cccc4Cl)c(=O)n(C)c3n2)ccc1F` [PD180970]: in [1], the HIF-1α protein level result is listed as “dose-dependent reduction in HIF-1α protein level”. Besides, the “Stat3 DNA-binding activity” value in [3] is reported as “parallel reduction in Stat3 DNA-binding activity”.
